Results: US20100068204A1, “4-ARYLOXYQUINOLIN-2(1H)-ONES AS MTOR KINASE AND PI3 KINASE INHIBITORS, FOR USE AS ANTI-CANCER AGENTS” (Wyeth, priority 2008, published 2010)

Experiments:
human TOR (FLAG-TOR) = human TOR (FLAG-TOR) (Homo sapiens, UniProt P42345); test: mTOR enzyme assay (DELFIA format, purified enzyme); assay type: biochemical; details: 800 ng/ml FLAG-TOR, 100 μM ATP, 1.25 μM His6-S6K; read-out: mTOR Kinase IC50
[1] = test system: LNCap prostate tumor cells; test: In vitro cell growth assay (MTS), LNCap; assay type: cell-based, human; details: Homo sapiens, LNCaP, 72 h, three days after drug treatment
How it was run: (§1)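 Tumor cells plated ~3000/well; inhibitors in DMSO added one day later (final DMSO 0.25%). After three days of treatment, viable cell density read by MTS conversion, absorbance at 490 nm. Effect expressed relative to untreated control growth.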

[2] = test system: MDA468 breast tumor cells; test: In vitro cell growth assay (MTS), MDA468; assay type: cell-based, human; details: Homo sapiens, 72 h, three days after drug treatment
How it was run: as §1

PI3Kα = PI3Kα (Homo sapiens, UniProt P42336); test: PI3Kα fluorescence polarization assay; assay type: biochemical; details: 20 μM PIP2, 25 μM ATP
PI3Kα, sequence (P42336 whole entry, species assumed): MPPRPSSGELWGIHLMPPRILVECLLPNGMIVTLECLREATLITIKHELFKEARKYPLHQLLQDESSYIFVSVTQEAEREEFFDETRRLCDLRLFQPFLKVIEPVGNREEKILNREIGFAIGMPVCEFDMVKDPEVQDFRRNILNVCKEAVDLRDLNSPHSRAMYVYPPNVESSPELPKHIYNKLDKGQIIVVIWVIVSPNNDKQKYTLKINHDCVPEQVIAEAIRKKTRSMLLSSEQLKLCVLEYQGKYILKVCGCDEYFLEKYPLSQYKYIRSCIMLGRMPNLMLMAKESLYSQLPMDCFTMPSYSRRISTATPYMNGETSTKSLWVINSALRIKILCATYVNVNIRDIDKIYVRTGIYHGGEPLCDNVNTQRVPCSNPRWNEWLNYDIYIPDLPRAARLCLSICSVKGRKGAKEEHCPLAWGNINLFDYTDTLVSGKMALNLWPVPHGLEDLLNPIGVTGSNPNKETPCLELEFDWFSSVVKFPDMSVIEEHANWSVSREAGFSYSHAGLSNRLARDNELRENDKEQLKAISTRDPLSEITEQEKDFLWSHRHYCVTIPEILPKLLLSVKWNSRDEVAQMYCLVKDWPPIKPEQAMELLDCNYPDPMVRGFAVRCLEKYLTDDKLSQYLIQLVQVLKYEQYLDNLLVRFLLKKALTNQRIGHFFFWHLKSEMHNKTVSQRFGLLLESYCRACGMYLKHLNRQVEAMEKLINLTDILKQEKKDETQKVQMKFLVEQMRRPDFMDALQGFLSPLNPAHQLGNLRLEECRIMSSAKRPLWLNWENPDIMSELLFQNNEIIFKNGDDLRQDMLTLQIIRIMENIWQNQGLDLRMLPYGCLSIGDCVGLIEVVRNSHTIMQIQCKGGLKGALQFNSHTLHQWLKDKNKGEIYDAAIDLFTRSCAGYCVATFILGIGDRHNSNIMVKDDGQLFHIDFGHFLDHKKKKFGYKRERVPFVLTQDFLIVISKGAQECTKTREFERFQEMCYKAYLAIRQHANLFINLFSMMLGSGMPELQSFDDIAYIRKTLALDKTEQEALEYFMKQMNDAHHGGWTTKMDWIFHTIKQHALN
PI3Kα, sequence (P27986 whole entry partner, species assumed): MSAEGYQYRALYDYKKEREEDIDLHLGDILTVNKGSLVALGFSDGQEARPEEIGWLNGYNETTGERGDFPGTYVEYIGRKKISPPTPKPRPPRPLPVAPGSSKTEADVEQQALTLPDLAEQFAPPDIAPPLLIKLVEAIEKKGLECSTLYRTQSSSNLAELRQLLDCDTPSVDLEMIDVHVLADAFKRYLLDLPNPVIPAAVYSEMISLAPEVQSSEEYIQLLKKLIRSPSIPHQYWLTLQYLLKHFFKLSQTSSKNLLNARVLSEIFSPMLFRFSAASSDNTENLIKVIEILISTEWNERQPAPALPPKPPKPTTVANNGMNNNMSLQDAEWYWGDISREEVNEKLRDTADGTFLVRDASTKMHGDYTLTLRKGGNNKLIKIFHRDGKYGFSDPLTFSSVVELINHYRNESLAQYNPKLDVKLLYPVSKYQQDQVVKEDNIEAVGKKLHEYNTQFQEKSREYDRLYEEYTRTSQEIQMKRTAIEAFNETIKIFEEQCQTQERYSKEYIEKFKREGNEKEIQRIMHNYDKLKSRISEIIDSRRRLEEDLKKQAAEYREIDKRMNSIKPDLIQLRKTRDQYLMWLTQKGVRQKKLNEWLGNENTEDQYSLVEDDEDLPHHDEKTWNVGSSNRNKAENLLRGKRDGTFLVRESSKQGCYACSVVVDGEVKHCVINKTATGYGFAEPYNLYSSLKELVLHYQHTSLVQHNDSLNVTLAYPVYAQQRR
How it was run: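 Kinase reaction in 20 mM HEPES pH 7.5, 2 mM MgCl2, 0.05% CHAPS with final 20 μM diC8-PIP2 and 25 μM ATP, 30-60 min at room temperature. Stopped with 10 nM TAMRA-labelled probe plus 2.5 uM GST-murine GRP; fluorescence polarization read after 90-110 minutes.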

An IC50 (human TOR (FLAG-TOR)) of 0.12 µM, an IC50 [1] of 4 µM and an IC50 [2] of 11.5 µM were found for O=c1cc(Oc2cccc(NCCc3cccnc3)c2)c2ccccc2[nH]1 in this work. The IC50 (PI3Kα) was over 10 µM.

An IC50 (human TOR (FLAG-TOR)) of 1.85 µM, an IC50 [1] of 13 µM and an IC50 [2] of over 60 µM were found for CC(=O)c1ccc(Oc2cc(=O)[nH]c3ccccc23)cc1 in this work. It also gave an IC50 (PI3Kα) of 1.66 µM.

An IC50 (human TOR (FLAG-TOR)) of 0.32 µM, an IC50 [1] of 7 µM and an IC50 [2] of 28 µM were found for CCN(CC)CCOc1cccc(Oc2cc(=O)[nH]c3ccccc23)c1 in this work. For the same molecule, the IC50 (PI3Kα) was over 10 µM.

An IC50 (human TOR (FLAG-TOR)) of 1.5 µM, an IC50 [1] of over 60 µM and an IC50 [2] of over 60 µM were found for O=c1cc(Oc2ccc3c(c2)OCO3)c2ccccc2[nH]1 in this work. It also gave an IC50 (PI3Kα) of over 10 µM.

An IC50 (human TOR (FLAG-TOR)) of 0.71 µM, an IC50 [1] of over 60 µM and an IC50 [2] of over 60 µM were found for O=c1cc(Oc2ccc(-c3cccc(O)c3)cc2)c2ccccc2[nH]1 in this work. It also gave an IC50 (PI3Kα) of 1.66 µM.

An IC50 (human TOR (FLAG-TOR)) of 0.4 µM, an IC50 [1] of 2.5 µM and an IC50 [2] of 4.05 µM were found for CN1CCN(c2cc(-c3cccc(Oc4cc(=O)[nH]c5ccccc45)c3)ccn2)CC1 in this work. For the same molecule, the IC50 (PI3Kα) was over 10 µM.

An IC50 (human TOR (FLAG-TOR)) of 0.04 µM, an IC50 [1] of 1.3 µM and an IC50 [2] of 2.8 µM were found for CC(C)(C)C(=O)Nc1ncccc1CNc1cccc(Oc2cc(=O)[nH]c3ccccc23)c1 in this work. The IC50 (PI3Kα) was 4.05 µM.

An IC50 (human TOR (FLAG-TOR)) of 0.32 µM, an IC50 [1] of 10 µM and an IC50 [2] of 10 µM were found for CN(C)CCNC(=O)c1cccc(-c2cccc(Oc3cc(=O)[nH]c4ccccc34)c2)c1 in this work. For the same molecule, the IC50 (PI3Kα) was over 10 µM.

An IC50 (human TOR (FLAG-TOR)) of 0.58 µM, an IC50 [1] of 6.5 µM and an IC50 [2] of 18 µM were found for CS(=O)(=O)Nc1cccc(-c2cccc(Oc3cc(=O)[nH]c4ccccc34)c2)c1 in this work. The IC50 (PI3Kα) was 3.55 µM.

An IC50 (human TOR (FLAG-TOR)) of 0.11 µM, an IC50 [1] of 60 µM and an IC50 [2] of over 60 µM were found for O=c1cc(Oc2cccc(Br)c2)c2ccccc2[nH]1 in this work. It also gave an IC50 (PI3Kα) of over 10 µM.

An IC50 (human TOR (FLAG-TOR)) of 0.14 µM, an IC50 [1] of 12 µM and an IC50 [2] of 23 µM were found for CN1CCN(CCNc2ccc(-c3cccc(Oc4cc(=O)[nH]c5ccccc45)c3)cc2)CC1 in this work. For the same molecule, the IC50 (PI3Kα) was over 10 µM.

An IC50 (human TOR (FLAG-TOR)) of 0.17 µM, an IC50 [1] of 8 µM and an IC50 [2] of 30 µM were found for Nc1cccc(-c2cccc(Oc3cc(=O)[nH]c4ccccc34)c2)c1 in this work. For the same molecule, the IC50 (PI3Kα) was 5.59 µM.

An IC50 (human TOR (FLAG-TOR)) of 3.5 µM, an IC50 [1] of 5.3 µM and an IC50 [2] of 12 µM were found for O=c1cc(Oc2cccc(NCc3ccc(Oc4ccc(F)cc4)cc3)c2)c2ccccc2[nH]1 in this work. For the same molecule, the IC50 (PI3Kα) was over 10 µM.

An IC50 (human TOR (FLAG-TOR)) of 1.85 µM, an IC50 [1] of over 60 µM and an IC50 [2] of over 60 µM were found for Cc1n[nH]c(C)c1-c1ccc(Oc2cc(=O)[nH]c3ccccc23)cc1 in this work. It also gave an IC50 (PI3Kα) of 6.95 µM.

An IC50 (human TOR (FLAG-TOR)) of 0.08 µM, an IC50 [1] of 3.2 µM and an IC50 [2] of 9.77 µM were found for O=c1cc(Oc2cccc(NCc3cccnc3)c2)c2ccccc2[nH]1 in this work. For the same molecule, the IC50 (PI3Kα) was over 10 µM.

An IC50 (human TOR (FLAG-TOR)) of 0.1 µM, an IC50 [1] of 7 µM and an IC50 [2] of 9 µM were found for CN(C)CCNC(=O)Nc1ccc(-c2cccc(Oc3cc(=O)[nH]c4ccccc34)c2)cc1 in this work. For the same molecule, the IC50 (PI3Kα) was over 10 µM.

An IC50 (human TOR (FLAG-TOR)) of 0.95 µM, an IC50 [1] of 7 µM and an IC50 [2] of 40 µM were found for O=c1cc(Oc2ccccc2Br)c2ccccc2[nH]1 in this work. It also gave an IC50 (PI3Kα) of 8 µM.

An IC50 (human TOR (FLAG-TOR)) of 0.75 µM, an IC50 [1] of 7 µM and an IC50 [2] of 60 µM were found for O=c1cc(Oc2cccc(OC(F)(F)F)c2)c2ccccc2[nH]1 in this work. The IC50 (PI3Kα) was 8 µM.

An IC50 (human TOR (FLAG-TOR)) of 0.15 µM, an IC50 [1] of 2.5 µM and an IC50 [2] of 28 µM were found for Nc1cccc(Oc2cc(=O)[nH]c3ccccc23)c1 in this work. For the same molecule, the IC50 (PI3Kα) was 0.106 µM.

An IC50 (human TOR (FLAG-TOR)) of over 20 µM, an IC50 [1] of over 60 µM and an IC50 [2] of over 60 µM were found for CN(C)CC(=O)Nc1ccc2[nH]c(=O)cc(Oc3ccccc3)c2c1 in this work. It also gave an IC50 (PI3Kα) of over 10 µM.

An IC50 (human TOR (FLAG-TOR)) of 0.06 µM, an IC50 [1] of 3.5 µM and an IC50 [2] of 8 µM were found for O=c1cc(Oc2cccc(NCc3ccc(Cl)nc3)c2)c2ccccc2[nH]1 in this work. It also gave an IC50 (PI3Kα) of 13 µM.

An IC50 (human TOR (FLAG-TOR)) of 3.7 µM, an IC50 [1] of over 60 µM and an IC50 [2] of 18 µM were found for CC(C)(C)OC(=O)N1CCN(c2ccc(-c3cccc(Oc4cc(=O)[nH]c5ccccc45)c3)cn2)CC1 in this work. The IC50 (PI3Kα) was over 10 µM.

An IC50 (human TOR (FLAG-TOR)) of 0.15 µM, an IC50 [1] of 6.4 µM and an IC50 [2] of 31 µM were found for O=c1cc(Oc2cccc(NC3CCN(Cc4ccncc4)CC3)c2)c2ccccc2[nH]1 in this work. The IC50 (PI3Kα) was over 10 µM.

An IC50 (human TOR (FLAG-TOR)) of 0.31 µM, an IC50 [1] of 5 µM and an IC50 [2] of 12 µM were found for CN(C)c1ncccc1CNc1cccc(Oc2cc(=O)[nH]c3ccccc23)c1 in this work. For the same molecule, the IC50 (PI3Kα) was over 10 µM.

An IC50 (human TOR (FLAG-TOR)) of 0.54 µM, an IC50 [1] of over 60 µM and an IC50 [2] of over 60 µM were found for COc1ccc(Oc2cc(=O)[nH]c3ccccc23)cc1 in this work. It also gave an IC50 (PI3Kα) of 11 µM.

An IC50 (human TOR (FLAG-TOR)) of 0.22 µM, an IC50 [1] of 7 µM and an IC50 [2] of 25 µM were found for O=C(NCCN1CCOCC1)Nc1ccc(-c2cccc(Oc3cc(=O)[nH]c4ccccc34)c2)cc1 in this work. For the same molecule, the IC50 (PI3Kα) was over 10 µM.

An IC50 (human TOR (FLAG-TOR)) of 0.4 µM, an IC50 [1] of over 60 µM and an IC50 [2] of 0.7 µM were found for O=c1cc(Oc2cccc(-c3ccco3)c2)c2ccccc2[nH]1 in this work. For the same molecule, the IC50 (PI3Kα) was over 10 µM.

An IC50 (human TOR (FLAG-TOR)) of 0.06 µM, an IC50 [1] of over 60 µM and an IC50 [2] of 60 µM were found for O=c1cc(Oc2cccc(NCc3cnc4ccccc4c3)c2)c2ccccc2[nH]1 in this work. The IC50 (PI3Kα) was over 10 µM.
